These are literature values, as cited in patent US20140106008A1, “GLYCEROL COMPOSITIONS AND SOLUTIONS” (BIO-ENERGY INGREDIENTS LIMITED, priority 2011, published 2014).

This data set relates to exposed organisms. The conditions noted are these: aquatic toxicity.

For the compound `OCC(O)CO` [Glycerol, propane-1,2,3-triol], the “TLm96 value, concentration that will kill 50% of the exposed organisms in 96 hours” value is “over 1000 mg/litre”.
